From patent US20220241203A1, “METHOD FOR PRODUCTION OF LIPOSOMES” (UNIVERSIDADE DO MINHO, priority 2019, published 2022) come the findings set out here.

The series is described as follows: Encapsulation efficiency of the agent in liposomes (free agent removed by gel filtration). It counts as physicochemical. On the procedure:
In an embodiment, liposomes composed of DOPE/Cholesterol/DSPE-MPEG (54:36:10, molar ratio) were prepared using the ethanolic injection method. Briefly, lipids (DOPE, cholesterol and DSPE-MPEG) were dissolved in ethanol (5% in the classic ethanol injection method; 50% in the new proposed pre-concentration method, relative to the initial 20% aqueous phase) at 60° C.
The solution was injected under stirring to an aqueous solution (phosphate buffered saline, PBS). This process is done at 70° C., remaining during the necessary time to evaporate all the ethanol volume.
In the classic ethanolic injection method liposomes are extruded to reduce their size. In the pre-concentration method, after ethanol evaporation or tangential flow filtration, liposomal dispersion is diluted five times in PBS (remaining 80% of volume is added). The free therapeutic or imaging agent that was not incorporated into liposomes was removed from the samples after passage through a gel filtration chromatography column (GE Healthcare) with 5 kDa cut-off (PD-10 Desalting Columns containing 8.3 mL of Sephadex G-25 Medium). Hydrophilic therapeutic or imaging agents (e.g. methotrexate and doxorubicin) are present in this aqueous phase in the classic ethanol injection method and in the new proposed pre-concentration method. […]

Take `CN(Cc1cnc2nc(N)nc(N)c2n1)c1ccc(C(=O)N[C@@H](CCC(=O)O)C(=O)O)cc1` [methotrexate]: the “amount of the agent used that was encapsulated” value (before optimization of the production method) is 3-5%. This molecule returned an encapsulation efficiencies (pre-concentration method, 1:1 ethanol:aqueous phase, 2 steps) of about 40%.
